Source: PMC8412337, “Alpha-single chains of collagen type VI inhibit the fibrogenic effects of triple helical collagen VI in hepatic stellate cells” (PLoS ONE, 2021)

Columns and labels:
[1] = tested on: Bax and Bcl-2 in activated HSCs; assay: Western-blot analysis of Bax and Bcl-2; type: cell-based, rat; settings: densitometry, three independent experiments
Procedure: Dislodged cells were centrifuged at 800 x g/10 min and lysed with 100 μl lysis buffer. The protein concentration was determined using NanoOrange® Protein Quantitation Kit (Life Technologies) according to the manufacturer’s instructions. Briefly, protein solutions were mixed with the diluted NanoOrange reagent in 1.5 ml polypropylene tubes and heated at 95°C for 10 min in a thermomixer (Peqlab, Erlangen, Germany). Tubes were centrifuged and 200 μl of each sample were transferred to a black 96 well flat-bottom plate (Greiner BioOne, Frickenhausen, Germany). The emitted fluorescence was assessed at 570 nm in a SpectraMax Gemini EM (Molecular Devices, Biberach an der Riß, Germany). Protein concentrations were calculated from a bovine serum albumin standard curve. Equivalent amounts (10–50 μg) of protein were used in […]. Sample buffer (1:1) was added and the aliquots (20 μl final volume) were boiled for 5 min and subjected to 12% SDS-PAGE. After blocking for 1 h at room temperature in 10 mmol Tris-HCl, pH 7.5, 100 mmol NaCl, containing 0.1% Tween 20 and 3% bovine serum albumine (BSA), nitrocellulose-membranes were incubated either with polyclonal rabbit anti-rat antibodies to Bax (1:1000, sc-493), Bcl-2 (1:1000, sc783, both Santa Cruz, Santa Cruz, USA), α-actin (1:4000, A2547, Sigma) or β-actin (1:10,000, A5441, Sigma). Membranes were then washed in 10 mmol Tris-HCl, 100 mmol NaCl, 0.1% Tween 20, pH 7.5, and incubated with anti-rabbit IgG coupled to peroxidase (1:1000, A4416, Sigma) for 1 h at room temperature or directly developed (RC20H). Bands were detected with the ECL chemiluminescence reagent (Amersham-Pharmacia, Freiburg, Germany). After stripping in 0.1 M glycin-HCl, pH 2, for 20 min at room temperature, membranes were reprobed with appropriate primary and secondary antibodies. Band intensities were analyzed by densitometry and normalized to β-actin.

primary rat HSC = assay: DNA laddering (agarose gel electrophoresis); type: cell-based; settings: after 24 h; 30 μg/ml CVI; serum-starved primary rat HSC
Procedure: Cells were treated 24 h with 0% FBS, CI, CVI or 10% FBS. Equal cell numbers (1.5x10^6) were used to detect oligonucleosomes using the Apoptotic DNA Ladder Kit (Boehringer Mannheim, Germany) according to the manufacturer’s instructions. The isolated DNA from each group was electrophoresed on a 1.5% Agarose-Gel at 75 V for 1.5 hours, stained with ethidium bromide and visualized via an UV light source (302 nm).

primary rat HSCs = assay: Spreading and survival after serum withdrawal, phase contrast microscopy; type: cell-based; settings: within 24 h; medium lacking FBS; 30 μg/ml collagen; three independent experiments
Procedure: Activated HSC (third passage) were serum starved for 24 h in standard medium without FBS (starving medium), followed by dissociation with 500 μl 0.05% trypsin-EDTA (Biochrom, Berlin, Germany) and neutralization with 30 ml starving medium containing 1 g/l soybean trypsin inhibitor and 1 g/l ovalbumin. Alternatively, cells were scraped carefully with a cell-scraper (Costar, Cambridge, MA, USA) to exclude any potential effect of trypsin. […] For quantification of spreading, cells that had attached were counted 12 hours after plating and spreading efficiency was determined as percentage of plated cells in each group. De-novo DNA synthesis and apoptosis were assessed by morphological criteria, Cell death detection ELISA and FACS analysis as described below. […] After blocking the cells 1h with DMEM+1% FBS, the cells were incubated with primary antibodies against a-actin (Sigma-Aldrich, Taufkirchen, Germany, #A2547; dilution 1:200) and GFAP (Sigma-Aldrich, #G9269; dilution 1:20) followed by a washing step with PBS and the incubation with fluorescence-labeled secondary antibodies (Alexa Fluor 546 & Alexa Fluor 488, Molecular Probes, Eugene, USA, #A11030 & #A11034; dilution 1:100). […]

CFSC = assay: Fibrosis-associated gene expression, quantitative real-time PCR; type: cell-based, rat
Procedure: 30 mg/l CVI, 133 mg/l of the monomeric alpha chains of CVI and/or TGF-β (2 ng/ml) were added after 24 h. […] Reverse transcribed complementary DNA templates were amplified by quantitative real-time polymerase chain reaction (PCR; Roche Diagnostics, Mannheim, Germany) using fluorogenic probes labeled with 6-carboxy-fluorescein and 6-carboxy-tetramethylrhodamin (Sigma- Genosys, Steinheim, Germany) and primer pairs (Invitrogen, Karlsruhe, Germany) specific for fibrosis-associated genes (for sequences see S2 Table). Gene expressions were normalized to glyceraldehyde phosphate dehydrogenase (GAPDH).

**Q.** With “CVI: Human collagen VI isolated from placentas by pepsin digestion; triple helical, soluble” as the substance, how does the “Bax to Bcl-2 ratio” value ([1]; 24 hours culture after serum starvation) read?
**A.** 1.0

**Q.** And the “Bax protein level, fold lower compared to the medium or CI group” value ([1]; 24 hours, p<0.05)?
**A.** 6-7 fold

**Q.** What about the “apoptosis-associated DNA laddering” value (primary rat HSC) of the same substance?
**A.** only faint

**Q.** And the “suppression of growth factor withdrawal-induced apoptosis (attachment, cell shrinkage)” value (primary rat HSCs)?
**A.** potently suppressed

**Q.** And the “kinetics of CI expression compared with TGF-β” value (CFSC; CFSC, medium containing 0.2% FBS, S3 Fig)?
**A.** slightly decreased and delayed

**Q.** What about the “αSMA, CI and TGF-β expression” value (CFSC; serum-starved CFSC, 30 mg/l CVI, 24 h, qPCR normalized to GAPDH) of the same substance?
**A.** potently induced

**Q.** And the “reduction of the expression of MMP-3” value (CFSC; serum-starved CFSC, 24 h, TGF-β 2 ng/ml, CVI 30 mg/l, qPCR normalized to GAPDH)?
**A.** only slightly reduced

**Q.** And the “expression of TIMP-1” value (CFSC; serum-starved CFSC, 24 h, qPCR normalized to GAPDH)?
**A.** stimulated the expression of TIMP-1
